system: MCH receptors; experiment: MCH receptor activity class (method not given); details: MCH receptor activity class 1-3 (percent of control at 10^-7 M or IC50)

Row | SMILES | class
1 | CN(C)c1ccnc(N[C@H]2CC[C@@H](CNC(=O)Nc3ccc(C#N)cc3)CC2)n1 [compound 2434] | 3 (Class 3 The value of percent of control at 10^−7 M was more than 60% or the value of IC50 was more than 200 nM.)
2 | CN(C)c1ccnc(N[C@H]2CC[C@@H](CNC(=O)NC(c3ccccc3)c3ccccc3)CC2)n1 [compound 2435, N-[(cis-4-{[4-(dimethylamino)pyrimidin-2-yl]amino}cyclohexyl)methyl]-N′-(diphenylmethyl)urea] | 1 (Class 1: The value of percent of control at 10^−7 M was less than 40% or the value of IC50 was less than 50 nM.)
3 | Cc1cc(Br)cc(C)c1NC(=O)NC[C@H]1CC[C@@H](Nc2nccc(N(C)C)n2)CC1 [compound 2436, N-(4-bromo-2,6-dimethylphenyl)-N′-[(cis-4-{[4-(dimethylamino)pyrimidin-2-yl]amino}cyclohexyl)methyl]urea] | 1 (Class 1: The value of percent of control at 10^−7 M was less than 40% or the value of IC50 was less than 50 nM.)
4 | Cc1noc(-c2ccccc2)c1NC(=O)NC[C@H]1CC[C@@H](Nc2nccc(N(C)C)n2)CC1 [compound 2437] | 1 (Class 1: The value of percent of control at 10^−7 M was less than 40% or the value of IC50 was less than 50 nM.)
5 | Cc1cc(NC(=O)NC[C@H]2CC[C@@H](Nc3nccc(N(C)C)n3)CC2)c(C(F)(F)F)o1 [compound 2438] | 3 (Class 3 The value of percent of control at 10^−7 M was more than 60% or the value of IC50 was more than 200 nM.)
6 | CN(C)c1ccnc(N[C@H]2CC[C@@H](CNC(=O)Nc3cc(Cl)cc(Cl)c3)CC2)n1 [compound 2439] | 2 (Class 2: The value of percent of control at 10^−7 M was from 40% to 60% or the value of IC′50 was from 50 nM to 200 nM.)
7 | CN(C)c1ccnc(N[C@H]2CC[C@@H](CNC(=O)Nc3cccc(Cl)c3Cl)CC2)n1 [compound 2440] | 1 (Class 1: The value of percent of control at 10^−7 M was less than 40% or the value of IC50 was less than 50 nM.)
8 | Cc1ccc(NC(=O)NC[C@H]2CC[C@@H](Nc3nccc(N(C)C)n3)CC2)cc1 [compound 2441] | 3 (Class 3 The value of percent of control at 10^−7 M was more than 60% or the value of IC50 was more than 200 nM.)
9 | CC(C)c1cccc(C(C)C)c1NC(=O)NC[C@H]1CC[C@@H](Nc2nccc(N(C)C)n2)CC1 [compound 2442] | 1 (Class 1: The value of percent of control at 10^−7 M was less than 40% or the value of IC50 was less than 50 nM.)
10 | Cc1ccc([N+](=O)[O-])c(NC(=O)NC[C@H]2CC[C@@H](Nc3nccc(N(C)C)n3)CC2)c1C [compound 2443] | 1 (Class 1: The value of percent of control at 10^−7 M was less than 40% or the value of IC50 was less than 50 nM.)
11 | CN(C)c1ccnc(N[C@H]2CC[C@@H](CNC(=O)Nc3c(Br)cc(F)cc3Br)CC2)n1 [compound 2444, N-(2,6-dibromo-4-fluorophenyl)-N′-[(cis-4-{[4-(dimethylamino)pyrimidin-2-yl]amino}cyclohexyl)methyl]urea] | 1 (Class 1: The value of percent of control at 10^−7 M was less than 40% or the value of IC50 was less than 50 nM.)
12 | CN(C)c1ccnc(N[C@H]2CC[C@@H](CNC(=O)Nc3c(Cl)cccc3Cl)CC2)n1 [compound 2445] | 1 (Class 1: The value of percent of control at 10^−7 M was less than 40% or the value of IC50 was less than 50 nM.)
13 | COc1ccc(C)cc1NC(=O)NC[C@H]1CC[C@@H](Nc2nccc(N(C)C)n2)CC1 [compound 2446] | 2 (Class 2: The value of percent of control at 10^−7 M was from 40% to 60% or the value of IC′50 was from 50 nM to 200 nM.)
14 | Cc1cccc([N+](=O)[O-])c1NC(=O)NC[C@H]1CC[C@@H](Nc2nccc(N(C)C)n2)CC1 [compound 2447, N-[(cis-4-{[4-(dimethylamino)pyrimidin-2-yl]amino}cyclohexyl)methyl]-N′-(2-methyl-6-nitrophenyl)urea] | 2 (Class 2: The value of percent of control at 10^−7 M was from 40% to 60% or the value of IC′50 was from 50 nM to 200 nM.)
